Assay results: PMC8781390, “Inclusion Complexes of Rifampicin with Native and Derivatized Cyclodextrins: In Silico Modeling, Formulation, and Characterization” (Pharmaceuticals, 2021)
≈ marks a conversion by molar mass, not a printed value. Like-named read-outs stand apart in the source and are kept apart here.

Key:
[1] = tested on: Staphylococcus aureus (NCTC 10788); assay: MIC by broth microdilution; type: cell-based; settings: Staphylococcus aureus NCTC 10788, 37 °C
Description: (§1) The minimum inhibitory concentration (MIC) of pure RIF and RIF-CD complexes was determined against both Staphylococcus aureus (NCTC® 10788) and methicillin-resistant Staphylococcus aureus (MRSA) (ATCC® 33593™) using the broth microdilution method. Briefly, inclusion complexes of RIF-CD were separately dissolved in sterile distilled water and diluted with Mueller–Hinton broth (MHB) to obtain a series of culture media containing different RIF concentrations ranging from 50 to 0.78 µg/mL. Solutions and suspensions of pure RIF were prepared by adding the pure RIF in methanol and in sterile distilled water, respectively, and then diluted with MHB to achieve the same concentration as for the RIF-CD inclusion complexes. Culture media in the microplates were inoculated with 100 µL of each bacterial suspension to achieve a final bacterial concentration of 2.0 × 10^5 CFU/mL. Pure MHB inoculated with the different bacterial strains was included as a positive control. The inoculated culture media were then incubated at 37 °C for 24 h. The MIC was determined as the lowest concentration of pure RIF and RIF-CD inclusion complexes where no visible bacterial growth was detected.

[2] = tested on: Methicillin-resistant Staphylococcus aureus (MRSA) (ATCC 33593); assay: MIC by broth microdilution; type: cell-based; settings: 24 h, MRSA ATCC 33593, 37 °C
Description: as §1

[3] = parameters: method as in earlier work; settings: in humans; cited from earlier work
[4] = Saturation solubility of RIF in buffered solutions; type: physicochemical; settings: buffered solution
Description: Solubility studies were performed to assess RIF solubility in a range of buffers (pH 4.0, pH 7.0, and pH 9.0). For this purpose, an excess amount of RIF was added to 3 mL of adjusted buffered solutions in a glass vial. Suspensions were stirred at 100 rpm in a shaker incubator (Jeio Tech ISF-7100, Medline Scientific, Chalgrove Oxon, UK) at 37 °C for 24 h. Samples were then filtered using 0.2 μm syringe filters (Minisart®, Sartorius Stedim Biotech, Goeltingen, Germany). All samples were diluted appropriately and analyzed using the validated HPLC method described in Section 2.10.
(§2) The HPLC method for RIF quantification was adapted from our previous work. HPLC Agilent 1220 Series (Agilent Technologies, UK Ltd., Stockport, UK) was used to analyze all the samples. Isocratic separation was achieved using a Phenomenex® Luna C18 (ODS1) column (150 × 4.6 mm internal diameter, 5 µm packing) (Phenomenex, Cheshire, UK). The injection volume was 50 µL and the analysis was carried out at room temperature with a flow rate of 1 mL/min. The mobile phase was a mixture of 25 mM sodium dihydrogen phosphate buffer (with 1% triethylamine and adjusted using phosphoric acid at pH 6.8) and methanol (ratio 30:70 v/v). RIF was detected by a UV at 334 nm. All chromatograms were analyzed using the Agilent ChemStation® Software B.02.01.

[5] = In vitro release / dissolution study; type: physicochemical; settings: all studied release media (pH 1.2, 6.8, 7.4), 37 °C
Description: In vitro release profiles for pure RIF and RIF-CD inclusion complexes were evaluated […]. Simulated gastric fluid (pH 1.2), simulated intestinal fluid (pH 6.8), and PBS (pH 7.4) were prepared as the release media in this study and used to mimic biological conditions in the human body. All samples were added into Eppendorf tubes containing 2 mL of the release media and were then placed in an incubator at 37 °C with shaking at 40 rpm. Sampling was carried out at 1, 2, 3, 4, 5, 6, 7, 8, and 24 h by taking 200 µL of each sample, transferring them to HPLC vials containing glass inserts, and replacing the sample with 200 µL of fresh release media. The samples were analyzed using a validated HPLC method.
as §2, with “The mobile phase was a mixture of 25 mM sodium dihydrogen phosphate buffer (with 1% triethylamine and adjusted using phosphoric acid at pH 6.8) and methanol (ratio 30:70 v/v).” left out

[6] = Phase solubility analysis of RIF with cyclodextrins (binding constant, complexation efficiency); type: physicochemical
Description: Phase solubility analysis was carried out similarly to the saturation solubility studies by using a range of concentrations of CDs in buffered solutions at different pH vales. […] Solubility of each drug was determined and plotted in a graph with the nominal concentration of cyclodextrin on the x-axis and the nominal concentration of RIF on the y-axis.
In order to determine the binding strength of CD and RIF, the binding constant (Ks) was calculated based on the phase diagram of solubility studies. […] (1) Ks=[RIF−CD]/[RIF]free·[CD]free CD+RIF↔KsCD−RIF where [RIF − CD], [RIF]free, and [CD]free are concentration of the RIF-CD complexes, free RIF, and free CD, respectively.
[RIF]free can be considered as RIF initial solubility (S0), therefore Equation (2) becomes:(2) Ks=[RIF−CD]/S0·[CD]free
The phase solubility diagram was constructed by plotting the RIF molar concentration on the y-axis and the CD molar concentration on the x-axis. […] (3) Ks=slope/S0·(1−slope)
The complexation efficiency (CE) was determined by using the slope of the phase solubility diagram according to Equation (4). (4) CE=[CD−RIF]/[CD]free=S0·Ks=slope/1−slope
Based on CE determination, the CD molar ratio was calculated using Equation (5). (5) Drug :CD molar ratio=1 : (CE+1)/CE

CO[C@H]1/C=C/O[C@@]2(C)Oc3c(C)c(O)c4c(O)c(c(/C=N/N5CCN(C)CC5)c(O)c4c3C2=O)NC(=O)/C(C)=C\C=C\[C@H](C)[C@H](O)[C@@H](C)[C@@H](O)[C@@H](C)[C@H](OC(C)=O)[C@@H]1C [Pure RIF (solution), Rifampicin]
MIC ([1]; Staphylococcus aureus, NCTC10788, 24 h, n = 3, read-out: MIC): 0.78 µg/mL (≈ 0.948 µM) | MIC ([2]; Staphylococcus aureus, n = 3, read-out: MIC): 0.78 µg/mL (≈ 0.948 µM)

CO[C@H]1/C=C/O[C@@]2(C)Oc3c(C)c(O)c4c(O)c(c(/C=N/N5CCN(C)CC5)c(O)c4c3C2=O)NC(=O)/C(C)=C\C=C\[C@H](C)[C@H](O)[C@@H](C)[C@@H](O)[C@@H](C)[C@H](OC(C)=O)[C@@H]1C [Pure RIF (suspension), Rifampicin]
MIC ([1]; 24 h, n = 3): 1.56 µg/mL (≈ 1.9 µM) | MIC ([2]; n = 3): 1.56 µg/mL (≈ 1.9 µM)

CO[C@H]1/C=C/O[C@@]2(C)Oc3c(C)c(O)c4c(O)c(c(/C=N/N5CCN(C)CC5)c(O)c4c3C2=O)NC(=O)/C(C)=C\C=C\[C@H](C)[C@H](O)[C@@H](C)[C@@H](O)[C@@H](C)[C@H](OC(C)=O)[C@@H]1C [RIF, Rifampicin]
oral bioavailability [3]: approximately 68% | solubility at 24 h ([4]; aqueous buffer, thermodynamic from solid, buffer pH 7.0, 37 °C): 870 µg/mL (≈ 1060 µM) | solubility at 24 h ([4]; buffer pH 4.0, 37 °C): 310 µg/mL (≈ 377 µM) | solubility at 24 h ([4]; buffer pH 9.0, 37 °C): 1400 µg/mL (≈ 1700 µM) | RIF released in 2 h [5]: less than 10%

OC[C@H]1O[C@@H]2O[C@H]3[C@H](O)[C@@H](O)[C@@H](O[C@H]4[C@H](O)[C@@H](O)[C@@H](O[C@H]5[C@H](O)[C@@H](O)[C@@H](O[C@H]6[C@H](O)[C@@H](O)[C@@H](O[C@H]7[C@H](O)[C@@H](O)[C@@H](O[C@H]8[C@H](O)[C@@H](O)[C@@H](O[C@H]1[C@H](O)[C@H]2O)O[C@@H]8CO)O[C@@H]7CO)O[C@@H]6CO)O[C@@H]5CO)O[C@@H]4CO)O[C@@H]3CO [βCD]
CE (complexation efficiency) ([6]; pH 4.0): 0.09 | Ks (binding constant) ([6]; pH 4.0, RIF-CD 1:1 complex): 215 M⁻¹ | CE (complexation efficiency) ([6]; pH 7.0): 0.29 | Ks (binding constant) ([6]; pH 7.0, RIF-CD 1:1 complex): 250 M⁻¹

OC[C@H]1O[C@@H]2O[C@H]3[C@H](O)[C@@H](O)[C@@H](O[C@H]4[C@H](O)[C@@H](O)[C@@H](O[C@H]5[C@H](O)[C@@H](O)[C@@H](O[C@H]6[C@H](O)[C@@H](O)[C@@H](O[C@H]7[C@H](O)[C@@H](O)[C@@H](O[C@H]8[C@H](O)[C@@H](O)[C@@H](O[C@H]9[C@H](O)[C@@H](O)[C@@H](O[C@H]1[C@H](O)[C@H]2O)O[C@@H]9CO)O[C@@H]8CO)O[C@@H]7CO)O[C@@H]6CO)O[C@@H]5CO)O[C@@H]4CO)O[C@@H]3CO [γCD]
CE (complexation efficiency) ([6]; pH 4.0): 0.80 | CE (complexation efficiency) ([6]; pH 7.0): 1.22 | Ks (binding constant) ([6]; pH 7.0, RIF-CD 1:1 complex): 1284 M⁻¹

hydroxypropyl-βCD [HP-βCD]
CE (complexation efficiency) ([6]; pH 4.0): 0.20 | Ks (binding constant) ([6]; pH 4.0, RIF-CD 1:1 complex): 541 M⁻¹ | CE (complexation efficiency) ([6]; pH 7.0): 0.92 | Ks (binding constant) ([6]; pH 7.0, RIF-CD 1:1 complex): 848 M⁻¹ | CE (complexation efficiency) ([6]; pH 9.0): 1.12 | Ks (binding constant) ([6]; pH 9.0, RIF-CD 1:1 complex): 649 M⁻¹
